Reference: patent US12102709B2, “Anti-obesity agent, anti-dementia agent, deodorant, anti-aging agent, anti-glycation agent, anti-type I allergy agent, hypotensive agent, flavor improving agent, muscle enhancing agent, and bone metabolism improving agent” (Mitsui Sugar Co., Ltd., priority 2018, dated 2024)

How the values were obtained:
[1] = AGEs crosslinking cutting test; assay type: biochemical; conditions: PTB 5 mmol/L
Protocol: Next, according to the AGEs crosslinking cutting test, the AGEs decomposition activity of the bagasse decomposition extract (the extract A) was evaluated. […] PPD) having an α-diketone structure was used as a model substrate, which is a known method (for example, Glycative Stress Research 2015, Vol. 2 (No. 2), pp. 58-66). The extract A as a bagasse decomposition extract was dissolved in distill water to a concentration of 20 mg/mL to prepare a test sample. The above prepared sample was added to a reaction solution containing a 0.16 mol/L phosphate buffer solution (pH 7.4), and a […] PPD composition to a concentration of 1/2 (10 mg/mL) and incubated at 37° C. for 8 hours. […] The amount of benzoic acid in the supernatant was analyzed through reversed phase HPLC. The amount of benzoic acid in the reaction solution was determined by subtracting the amount of benzoic acid in the sample that was separately measured. Since 1 mol of PPD produced 1 mol of benzoic acid, the crosslinking cutting rate was calculated according to the following formula. […] Then, the reaction solution was centrifuged at 20° C. and 3,000×g, for 10 minutes, and the amount of benzoic acid in the supernatant was analyzed through reversed phase HPLC. The amount of benzoic acid in the reaction solution was determined by subtracting the amount of benzoic acid in the sample that was separately measured. […]

3T3-L1 cells = assay: 3T3-L1 cell lipid accumulation inhibition test; assay type: cell-based, mouse; conditions: berberine chloride final concentration 1 μg/mL; untreated control = 100%
Protocol: The extract A was dissolved in water to prepare 50 mg/mL of a test solution stock solution. The test solution stock solution was diluted with a DMEM culture medium to prepare a test solution with a specimen concentration of 2,000 μg/mL.
3T3-L1 cells (National Institute of Biomedical Innovation, Health and Nutrition) as mouse adipose progenitor cells were seeded on a 24-well plate, and cultured in a DMEM culture medium containing a newborn calf serum (10 vol %, with respect to a total amount of the culture medium) and a penicillin-streptomycin solution (1 vol %, with respect to a total amount of the culture medium) for 4 days. […]
After the lipid droplets were observed, a pigment extract solution contained in the Adipogenesis Assay Kit was added to samples of Example a1, Comparative Example a1-1, and Positive Control a1-1, and Oil Red O incorporated into the lipid droplets was extracted. The absorbance of the extracted Oil Red O at 520 nm was measured using a microplate reader (SpectraMax M2e, commercially available from Molecular Devices, LLC.).
The lipid accumulation rate was calculated from the absorbance of respective samples according to the following formula. […]

C2C12 cells [2] = assay: Mitochondrial activation test (activity per cell); assay type: cell-based, mouse; conditions: resveratrol 50 μM, 1% (v/v) ethanol; 48 hours; Comparative Example i1-2 = 100%
Protocol: (Cells) • Mouse Myoblasts C2C12 Cells (ATCC, CRL-1772) (Culture Mediums) • Growth culture medium composition: DMEM culture medium, 10% FBS, antibiotics added • Differentiation culture medium composition: DMEM culture medium, 0.5% FBS, antibiotics added C2C12 cells were cultivated using a growth culture medium in a T-75 flask (75 cm^2 U-shaped canted neck cell culture flask, commercially available from Corning Co., Ltd.). The T-75 flask was put into a CO2 incubator (5% CO2, 37° C., wet) and the C2C12 cells were cultured. The culture medium was replaced every other day, and when an 80% confluence was reached, the cells were collected and used for the test. […] Pre-cultured cells were seeded in a 96-well plate for fluorescence observation (optical bottom plate, commercially available from Nunc) at 4×10^4 cells/0.1 mL/well using a growth culture medium. […] Then, the fluorescence intensity was measured with a fluorescent plate reader. The mitochondrial activity per cell was calculated by dividing the fluorescence intensity of the differentiation culture medium containing rhodamine by the fluorescence intensity of the differentiation culture medium containing Hoechst. […] In addition, the relative values (%) in the test samples of Examples i1-4 to i1-6 and Positive Control it when the mitochondrial activity in the test sample of Comparative Example i1-2 was set as 100% were determined.

C2C12 cells [3] = assay: Mitochondrial activation test (amount of mitochondria per cell); assay type: cell-based, mouse; conditions: Table 24; positive control; 48 hours; Comparative Example i1-4 = 100%
Protocol: (Cells) • Mouse Myoblasts C2C12 Cells (ATCC, CRL-1772) (Culture Mediums) • Growth culture medium composition: DMEM culture medium, 10% FBS, antibiotics added • Differentiation culture medium composition: DMEM culture medium, 0.5% FBS, antibiotics added C2C12 cells were cultivated using a growth culture medium in a T-75 flask (75 cm^2 U-shaped canted neck cell culture flask, commercially available from Corning Co., Ltd.). The T-75 flask was put into a CO2 incubator (5% CO2, 37° C., wet) and the C2C12 cells were cultured. The culture medium was replaced every other day, and when an 80% confluence was reached, the cells were collected and used for the test. Here, in the following test, regarding a well plate for culturing C2C12 cells, a plate coated with gelatin according to the following coating method was used. […] Then, after the culture supernatant was removed, a differentiation culture medium containing 5 μg/mL Hoechst (reagent for nuclear staining) and 500 nM MitoTracker (mitochondria staining reagent) was added to the well plate, and the fluorescence intensity was measured by the same method as in Test Example i1-1. The amount of mitochondria per cell was calculated by dividing the fluorescence intensity of the differentiation culture medium containing MitoTracker by the fluorescence intensity of the differentiation culture medium containing Hoechst. […]

[4] = system: human osteoclast precursor cells; assay: Osteoclast differentiation inhibition test 2 (proportion of mononuclear cells); assay type: cell-based; conditions: 7 days
Protocol: It is known that, when osteoclasts mature, cells fuse each other and become multinucleated. Therefore, the proportion of mononuclear cells of osteoclasts was measured, and an osteoclast differentiation inhibition effect was confirmed. Under the same culture conditions as in Example j2-1, human osteoclast precursor cells were cultured using a culture medium containing the extract A with a concentration shown in Table 27 (Example j3-1), a culture medium containing no extract (Comparative Example j3-1), or a culture medium containing melatonin with a concentration shown in Table 27 (Positive Controls j3-1 to j3-2) as positive controls. The proportion of mononuclear cells (%) was calculated by dividing the number of mononuclear cells in the field of view of the microscope by the total number of cells in the field of view.

[5] = system: human osteoclast precursor cells; assay: Osteoclast differentiation inhibition test 1 (TRAP staining); assay type: cell-based; conditions: 1,000 μM melatonin; 7 days; FIG. 11
Protocol: (Cells) • Human osteoclast precursor cells (commercially available from Cosmo Bio Co., Ltd. PT-267 Lot. RBW-F-OSH-HBV) Using the above culture medium, 250 μg/mL of a solution containing the extract A was prepared, and this was used as a test solution (Example j2-1). Human osteoclast precursor cells were seeded in a 96-well culture plate at about 0.3×10^5 cells/50 μl/well. A test solution was added thereto at 50 μL/well and culturing was performed under conditions of 37° C. and 5% CO2 for 7 days. The cultured cells were stained with TRAP using a TRAP staining kit, and observed under a microscope. In the same manner, the same test was performed on a culture medium to which no test solution was added (Comparative Example j2-1) and a culture medium containing 1,000 μM melatonin (Positive Control j2) as a positive control.

## O=C(C[n+]1ccsc1)c1ccccc1.[Br-] [PTB, N-phenacylthiazoliumbromide]
[1]; Test Example e2
  Crosslinking cutting rate: 20.1%
[1]; Test Example e4
  Crosslinking cutting rate: 22.4%

## COc1ccc2cc3[n+](cc2c1OC)CCc1cc2c(cc1-3)OCO2 [Positive Control a1-1, berberine chloride]
3T3-L1 cells
  Lipid accumulation rate: 19±1.0%

## Oc1ccc(C=Cc2cc(O)cc(O)c2)cc1 [Positive Control i1-1, resveratrol]
C2C12 cells [2]
  Mitochondrial activity per cell (relative value, %): 178.4 ± 9.6%
C2C12 cells [3]
  Amount of mitochondria per cell (relative value, %): 178.4 ± 9.6%

## COc1ccc2[nH]cc(CCNC(C)=O)c2c1 [Positive Control j3-1, melatonin]
[4]; melatonin 500 μM
  Proportion of mononuclear cells (%) (average N = 3): 88%
[4]; melatonin 1,000 μM
  Proportion of mononuclear cells (%) (average N = 3): 100%
[5]
  Microscopic observation of TRAP-stained osteoclasts: a decrease in the number of osteoclasts was also observed
